Test results published in patent US20210228545A1, “METHODS OF TREATING CONDITIONS RELATED TO THE S1P1 RECEPTOR” (Arena Pharmaceuticals, Inc., priority 2018, published 2021).

What was measured:
CYP1A2 = CYP1A2 (Homo sapiens, UniProt P05177); experiment: Direct inhibition of CYP activity in human liver microsomes; format: in vitro ADME; details: up to 10 μM
Excerpt: (§1) Known metabolism-dependent and/or direct inhibitors of CYP and UGT enzymes were included as positive controls, as applicable.

CYP2C19 = molecular target: T1, CYP2C19 (Homo sapiens, UniProt P33261); experiment: as above; format: in vitro ADME; details: up to 10 μM
T1 construct: human liver microsomes from a pool of 200 individuals; from tissue; host or cells: human liver microsomes, pool of 200 individuals
T1 sequence (P33261 whole entry): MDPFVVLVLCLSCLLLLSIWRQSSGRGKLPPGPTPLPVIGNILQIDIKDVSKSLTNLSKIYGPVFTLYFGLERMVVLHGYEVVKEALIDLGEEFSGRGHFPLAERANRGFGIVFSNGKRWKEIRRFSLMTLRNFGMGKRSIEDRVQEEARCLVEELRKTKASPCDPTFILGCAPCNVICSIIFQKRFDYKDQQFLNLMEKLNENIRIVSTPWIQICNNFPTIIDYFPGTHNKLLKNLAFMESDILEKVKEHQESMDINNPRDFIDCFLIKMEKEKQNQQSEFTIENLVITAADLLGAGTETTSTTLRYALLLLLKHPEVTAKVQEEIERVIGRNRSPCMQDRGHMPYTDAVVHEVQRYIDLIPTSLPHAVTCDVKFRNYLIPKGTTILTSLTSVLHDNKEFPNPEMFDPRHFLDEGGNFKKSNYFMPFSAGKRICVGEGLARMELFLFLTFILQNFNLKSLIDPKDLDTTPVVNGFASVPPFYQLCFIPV
Excerpt: as §1

CYP2C9 = molecular target: T2, CYP2C9 (Homo sapiens, UniProt P11712); experiment: as above; format: in vitro ADME; details: up to 10 μM
T2 construct: human liver microsomes from a pool of 200 individuals; from tissue; host or cells: human liver microsomes, pool of 200 individuals
T2 sequence (P11712 whole entry): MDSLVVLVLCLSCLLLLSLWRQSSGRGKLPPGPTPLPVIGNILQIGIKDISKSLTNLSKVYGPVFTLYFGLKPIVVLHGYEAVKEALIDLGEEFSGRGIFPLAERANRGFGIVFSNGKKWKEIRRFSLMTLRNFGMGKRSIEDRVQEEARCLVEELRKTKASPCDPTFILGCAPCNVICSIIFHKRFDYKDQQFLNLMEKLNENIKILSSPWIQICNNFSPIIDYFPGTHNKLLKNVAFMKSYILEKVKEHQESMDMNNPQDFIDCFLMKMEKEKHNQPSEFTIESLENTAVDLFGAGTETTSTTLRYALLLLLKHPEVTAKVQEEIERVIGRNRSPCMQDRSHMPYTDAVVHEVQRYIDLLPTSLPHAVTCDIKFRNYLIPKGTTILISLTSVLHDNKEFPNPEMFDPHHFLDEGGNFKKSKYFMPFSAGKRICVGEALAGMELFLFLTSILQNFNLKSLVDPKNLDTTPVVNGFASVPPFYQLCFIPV
Excerpt: as §1

CYP3A4/5 = experiment: as above; format: in vitro ADME; details: up to 10 μM
Excerpt: as §1

CYP2C8 = molecular target: T3, CYP2C8 (Homo sapiens, UniProt P10632); experiment: as above; format: in vitro ADME
T3 construct: human liver microsomes from a pool of 200 individuals; from tissue; host or cells: human liver microsomes, pool of 200 individuals
T3 sequence (P10632 1-490): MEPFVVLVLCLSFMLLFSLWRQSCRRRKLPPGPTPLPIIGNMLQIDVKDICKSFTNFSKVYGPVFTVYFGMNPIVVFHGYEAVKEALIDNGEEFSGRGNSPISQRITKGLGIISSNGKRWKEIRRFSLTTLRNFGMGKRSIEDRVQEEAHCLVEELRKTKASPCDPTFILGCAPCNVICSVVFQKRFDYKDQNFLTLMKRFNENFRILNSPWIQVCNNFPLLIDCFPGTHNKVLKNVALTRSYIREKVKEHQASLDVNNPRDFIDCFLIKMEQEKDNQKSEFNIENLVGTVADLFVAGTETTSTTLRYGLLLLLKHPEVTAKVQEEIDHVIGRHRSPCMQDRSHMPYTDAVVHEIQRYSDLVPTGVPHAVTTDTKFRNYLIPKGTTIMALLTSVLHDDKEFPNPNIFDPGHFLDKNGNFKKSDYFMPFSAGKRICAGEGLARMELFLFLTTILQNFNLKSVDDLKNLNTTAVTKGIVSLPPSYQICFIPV
Excerpt: as §1

CYP2D6 = molecular target: T4, CYP2D6 (Homo sapiens, UniProt P10635); experiment: as above; format: in vitro ADME; details: up to 10 μM
T4 construct: human liver microsomes from a pool of 200 individuals; from tissue; host or cells: human liver microsomes, pool of 200 individuals
T4 sequence (P10635 whole entry): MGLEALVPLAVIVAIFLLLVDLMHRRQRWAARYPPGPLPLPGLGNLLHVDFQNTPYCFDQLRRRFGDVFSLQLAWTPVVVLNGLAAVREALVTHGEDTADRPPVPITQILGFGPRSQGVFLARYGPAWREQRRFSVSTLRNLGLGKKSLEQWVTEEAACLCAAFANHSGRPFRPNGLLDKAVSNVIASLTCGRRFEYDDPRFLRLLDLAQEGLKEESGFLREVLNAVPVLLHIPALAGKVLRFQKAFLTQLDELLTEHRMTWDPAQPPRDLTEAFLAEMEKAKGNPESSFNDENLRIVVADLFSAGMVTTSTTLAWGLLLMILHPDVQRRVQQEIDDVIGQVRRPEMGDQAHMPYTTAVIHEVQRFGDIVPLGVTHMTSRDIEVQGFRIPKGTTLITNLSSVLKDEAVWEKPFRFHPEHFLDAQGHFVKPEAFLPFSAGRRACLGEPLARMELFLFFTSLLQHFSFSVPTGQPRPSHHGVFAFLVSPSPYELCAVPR
Excerpt: as §1

CYP2B6 = molecular target: T5, CYP2B6 (Homo sapiens, UniProt P20813); experiment: as above; format: in vitro ADME; details: up to 10 μM
T5 construct: human liver microsomes from a pool of 200 individuals; from tissue; host or cells: human liver microsomes, pool of 200 individuals
T5 sequence (P20813 whole entry): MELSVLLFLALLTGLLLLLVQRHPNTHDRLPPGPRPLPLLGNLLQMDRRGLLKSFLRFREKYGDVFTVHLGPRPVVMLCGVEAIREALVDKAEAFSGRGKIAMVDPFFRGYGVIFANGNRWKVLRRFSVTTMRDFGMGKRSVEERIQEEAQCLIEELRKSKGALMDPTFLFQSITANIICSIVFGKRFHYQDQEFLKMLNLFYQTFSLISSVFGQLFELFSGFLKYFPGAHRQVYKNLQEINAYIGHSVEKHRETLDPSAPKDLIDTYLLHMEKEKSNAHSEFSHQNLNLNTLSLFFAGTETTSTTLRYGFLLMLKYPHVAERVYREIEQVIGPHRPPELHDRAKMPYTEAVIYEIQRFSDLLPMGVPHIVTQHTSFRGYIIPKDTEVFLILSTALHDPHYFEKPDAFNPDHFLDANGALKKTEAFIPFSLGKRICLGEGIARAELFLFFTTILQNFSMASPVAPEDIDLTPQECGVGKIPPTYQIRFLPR
Excerpt: as §1

UGT1A1 = molecular target: T6, UGT1A1 (Homo sapiens, UniProt P22309); experiment: Direct inhibition of UGT activity in human liver microsomes; format: in vitro ADME; details: highest concentration tested (10 μM)
T6 construct: human liver microsomes from a pool of 200 individuals; from tissue; host or cells: human liver microsomes, pool of 200 individuals
T6 sequence (P22309 26-533): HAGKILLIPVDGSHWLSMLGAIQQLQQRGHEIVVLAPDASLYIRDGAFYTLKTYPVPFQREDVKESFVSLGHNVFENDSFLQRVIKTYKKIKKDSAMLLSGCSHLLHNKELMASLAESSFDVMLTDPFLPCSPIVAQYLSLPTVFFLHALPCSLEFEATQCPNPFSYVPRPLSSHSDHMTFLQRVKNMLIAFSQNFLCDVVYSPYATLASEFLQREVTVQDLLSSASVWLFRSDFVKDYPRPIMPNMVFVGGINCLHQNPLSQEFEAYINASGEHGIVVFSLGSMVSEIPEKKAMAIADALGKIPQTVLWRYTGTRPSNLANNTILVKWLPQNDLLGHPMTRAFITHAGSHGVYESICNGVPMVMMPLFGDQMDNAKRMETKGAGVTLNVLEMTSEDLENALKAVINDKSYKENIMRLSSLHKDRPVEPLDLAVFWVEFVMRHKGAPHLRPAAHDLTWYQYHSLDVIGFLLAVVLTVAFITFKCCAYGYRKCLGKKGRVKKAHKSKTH
Excerpt: as §1

UGT1A6 = molecular target: T7, UGT1A6 (Homo sapiens, UniProt P19224); experiment: as above; format: in vitro ADME; details: highest concentration tested (10 μM)
T7 construct: human liver microsomes from a pool of 200 individuals; from tissue; host or cells: human liver microsomes, pool of 200 individuals
T7 sequence (P19224 27-532): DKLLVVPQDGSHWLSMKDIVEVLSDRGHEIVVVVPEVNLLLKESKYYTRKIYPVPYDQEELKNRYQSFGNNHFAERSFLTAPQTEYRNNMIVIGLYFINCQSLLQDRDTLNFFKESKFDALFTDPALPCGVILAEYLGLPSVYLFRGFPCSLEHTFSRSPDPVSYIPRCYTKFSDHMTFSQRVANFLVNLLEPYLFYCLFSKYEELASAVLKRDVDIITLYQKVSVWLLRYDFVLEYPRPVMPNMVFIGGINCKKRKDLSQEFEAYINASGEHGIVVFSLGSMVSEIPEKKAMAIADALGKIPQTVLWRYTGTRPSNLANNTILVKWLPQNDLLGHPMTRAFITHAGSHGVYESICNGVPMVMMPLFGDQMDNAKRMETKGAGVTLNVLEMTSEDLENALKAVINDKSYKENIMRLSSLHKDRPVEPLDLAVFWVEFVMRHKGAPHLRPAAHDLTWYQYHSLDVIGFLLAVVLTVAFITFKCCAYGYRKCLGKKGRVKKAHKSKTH
Excerpt: as §1

BCRP = molecular target: T8, BCRP (Homo sapiens, UniProt Q9UNQ0); experiment: Transporter inhibition, MDCKII-BCRP cells; format: in vitro ADME
T8 sequence (Q9UNQ0 1-655): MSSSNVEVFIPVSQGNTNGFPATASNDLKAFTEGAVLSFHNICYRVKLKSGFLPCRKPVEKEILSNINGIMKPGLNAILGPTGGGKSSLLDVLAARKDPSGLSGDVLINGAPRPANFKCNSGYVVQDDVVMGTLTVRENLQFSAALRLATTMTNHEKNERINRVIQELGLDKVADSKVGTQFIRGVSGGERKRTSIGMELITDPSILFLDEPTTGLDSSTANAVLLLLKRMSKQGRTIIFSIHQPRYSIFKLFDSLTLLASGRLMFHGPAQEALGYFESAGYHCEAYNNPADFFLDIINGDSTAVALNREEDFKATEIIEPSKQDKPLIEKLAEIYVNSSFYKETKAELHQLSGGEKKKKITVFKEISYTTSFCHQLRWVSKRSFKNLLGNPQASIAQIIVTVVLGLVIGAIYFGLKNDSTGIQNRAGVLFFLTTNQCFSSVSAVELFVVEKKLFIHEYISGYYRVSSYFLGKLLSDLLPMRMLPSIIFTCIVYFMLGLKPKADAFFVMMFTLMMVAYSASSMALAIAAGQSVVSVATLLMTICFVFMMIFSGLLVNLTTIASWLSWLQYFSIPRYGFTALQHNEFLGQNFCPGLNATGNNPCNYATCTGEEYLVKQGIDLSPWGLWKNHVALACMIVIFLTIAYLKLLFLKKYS

OATP1B3 = molecular target: T9, OATP1B3 (Homo sapiens, UniProt Q9NPD5); experiment: Transporter substrate evaluation, HEK293 cells; format: in vitro ADME; details: 1 and 10 μM
T9 construct: expressed in transfected cells; host or cells: HEK293
T9 sequence (Q9NPD5 1-702): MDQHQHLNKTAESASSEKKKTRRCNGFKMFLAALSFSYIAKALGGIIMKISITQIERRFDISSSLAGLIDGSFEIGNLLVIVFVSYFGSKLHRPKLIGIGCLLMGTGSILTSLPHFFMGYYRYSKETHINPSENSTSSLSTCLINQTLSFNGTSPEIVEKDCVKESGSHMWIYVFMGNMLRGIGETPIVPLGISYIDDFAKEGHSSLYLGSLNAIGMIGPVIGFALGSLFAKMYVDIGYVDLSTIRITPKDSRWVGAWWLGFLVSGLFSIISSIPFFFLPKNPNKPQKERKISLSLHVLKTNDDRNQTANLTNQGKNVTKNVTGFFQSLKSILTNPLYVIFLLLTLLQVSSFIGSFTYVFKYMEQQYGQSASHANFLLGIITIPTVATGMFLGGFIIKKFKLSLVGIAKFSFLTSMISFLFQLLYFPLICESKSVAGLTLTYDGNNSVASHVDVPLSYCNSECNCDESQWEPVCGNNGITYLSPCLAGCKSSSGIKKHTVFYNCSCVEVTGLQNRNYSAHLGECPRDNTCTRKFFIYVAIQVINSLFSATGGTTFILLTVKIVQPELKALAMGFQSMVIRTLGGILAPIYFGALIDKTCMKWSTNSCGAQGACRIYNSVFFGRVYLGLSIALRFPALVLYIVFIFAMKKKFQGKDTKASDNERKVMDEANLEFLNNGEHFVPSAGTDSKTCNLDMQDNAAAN

[1] = In vitro metabolism studies and human mass balance clinical study; format: in vivo; details: oxidative (CYP2C8, CYP2C9) and conjugation (UGT1A7, minor UGT1A1, UGT1A4) pathways
Excerpt: Compound 1 is eliminated from the systemic circulation mainly due to metabolism and biliary/fecal excretion.

[2] = Phase 1 single dosing study: safety and tolerability

Sequence of CYP1A2 (P05177 whole entry): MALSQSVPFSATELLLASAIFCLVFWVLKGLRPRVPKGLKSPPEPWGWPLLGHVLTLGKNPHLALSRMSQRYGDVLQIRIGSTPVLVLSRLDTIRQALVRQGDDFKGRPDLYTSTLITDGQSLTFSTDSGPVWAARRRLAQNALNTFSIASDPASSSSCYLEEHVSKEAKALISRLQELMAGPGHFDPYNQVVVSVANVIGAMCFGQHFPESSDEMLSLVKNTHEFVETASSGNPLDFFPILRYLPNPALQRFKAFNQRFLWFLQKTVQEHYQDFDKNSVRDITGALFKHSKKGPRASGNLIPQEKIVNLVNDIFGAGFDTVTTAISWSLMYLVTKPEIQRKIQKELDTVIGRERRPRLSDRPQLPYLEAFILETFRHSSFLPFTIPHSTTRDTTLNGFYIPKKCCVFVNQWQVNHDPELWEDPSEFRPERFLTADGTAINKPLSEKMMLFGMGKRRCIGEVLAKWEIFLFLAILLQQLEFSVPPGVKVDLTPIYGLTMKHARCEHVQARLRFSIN

In the case of `O=C(O)C[C@H]1CCc2c1[nH]c1ccc(OCc3ccc(C4CCCC4)c(C(F)(F)F)c3)cc21` [Compound 1, (R)-2-(7-(4-cyclopentyl-3-(trifluoromethyl)benzyloxy)-1,2,3,4-tetrahydrocyclopenta[b]indol-3-yl)acetic acid], the “Direct inhibition of CYP1A2 activity” value (CYP1A2) is reported as “Little or no direct inhibition”, the “Direct inhibition of CYP2C19 activity” value (CYP2C19) is reported as “Little or no direct inhibition” and the “Direct inhibition of CYP2C9 activity” value (CYP2C9) is reported as “Little or no direct inhibition”. For the same compound, the “Direct inhibition of CYP3A4/5 activity” value (CYP3A4/5) was “Little or no direct inhibition”, the inhibition at 1 µM (CYP2C8) was 22% and the inhibition at 10 µM (CYP2C8) was about 100%. For the same compound, the “Direct inhibition of CYP2D6 activity” value (CYP2D6) was “Little or no direct inhibition”, the “Direct inhibition of CYP2B6 activity” value (CYP2B6) was “Little or no direct inhibition” and the inhibition at 10 µM (UGT1A1) was at most 28%. For the same compound, the inhibition at 10 µM (UGT1A6) was at most 48%, the “Reduction of corrected efflux ratio of prazosin (1 μM) across MDCKII-BCRP cells” value (BCRP; 10 and 100 μM, post-assay TEER below acceptance criteria) was “more than 50%” and the IC50 (BCRP; MDCKII-BCRP cells, prazosin (1 μM), 0.03 to 30 μM) was 35.7 µM. For the same compound, the “Potential substrate of OATP1B3” value (OATP1B3; HEK293 cells) was “not a substrate of OATP1B3 and not a substrate and No”, the “Uptake ratio into OATP1B3-expressing cells” value (OATP1B3; absence and presence of rifampin) was “less than two” and the “Extent of metabolism (overall)” value [1] was over 25%. For the same compound, the “Deaths or serious adverse events” value ([2]; single doses 0.1 to 5 mg) was “no deaths or serious adverse events” and the Maximum tolerated dose ([2]; single dosing, L-arginine salt) was 3 mg.
